Values quoted from earlier work, collected in patent EP2151446B1, “Process for the preparation of bidentate schiff base ruthenium catalysts containing a salicylaldimine-type ligand” (Rimtec Corporation, priority 2008, dated 2010).

Conditions: in water

Structure (SMILES)	pKb
O=C([O-])[O-].[Cu+2] [CuCO3]	about 3.69
O=C([O-])[O-].[K+].[K+] [Entry K2CO3]	about 3.69
O=C([O-])[O-].[Li+].[Li+] [Li2CO3]	about 3.69
O=C([O-])[O-].[Na+].[Na+] [Na2CO3]	about 3.69
